Measurements published in publication PMC6529438 (2019).

Tests used:
Assay in all cases: graphene oxide FRET fluorescence recovery with DNase I amplification
Conditions in all cases: 5 mM Mg2+, 15 mM Na+, 20 mM Tris-HCl, 0.001% PEG 900, pH 8.0
[1] = test system: Cy3-modified sulfadimethoxine aptamer (P1) (DNA, aptamer) GAGGGCAACGAGTGTTTATAGA
[2] = test system: Cy5-modified ampicillin aptamer (P3) (DNA, aptamer) GCGGGCGGTTGTATAGCGG
[3] = test system: FAM-modified kanamycin aptamer (P2) (DNA, aptamer) TGGGGGTTGAGGCTAAGCCGA
[4] = 10-500 ng/mL, room temperature, then 37 °C with DNase I
[5] = 500 ng/mL, mixed aptamers, very weak signal change

Compound: COc1cc(NS(=O)(=O)c2ccc(N)cc2)nc(OC)n1
- binding [1, 4]: yes
- binding [2, 5]: no
- binding [3, 5]: no

Compound: NC[C@H]1O[C@H](O[C@H]2[C@H](O)[C@@H](O[C@H]3O[C@H](CO)[C@@H](O)[C@H](N)[C@H]3O)[C@H](N)C[C@@H]2N)[C@H](O)[C@@H](O)[C@@H]1O
- binding ([1]; 500 ng/mL kanamycin with 500 ng/mL ampicillin, mixed aptamers): no
- binding [3, 4]: yes

Compound: CC1(C)S[C@@H]2[C@H](NC(=O)[C@H](N)c3ccccc3)C(=O)N2[C@H]1C(=O)O
- binding ([1]; 500 ng/mL, with kanamycin none, alone weak signal change): no
- binding [2, 4]: yes
- binding ([3]; 500 ng/mL, mixed aptamers, weak signal change only): weak
